Data on three molecules can be found in patent US5852005A, “Tetracyclic triterpenes” (Novartis AG, priority 1994, dated 1998).

One experiment concerns P-815 mastocytoma cells. Kind of experiment: Cytotoxic and cytostatic activity in vitro using the P-815 mastocytoma cell line. Format: cell-based. As to conditions: Table 5. On the procedure:
(§1) Fractions are dissolved in ethanol and tested in the Mishell-Dutton assay (primary humoral immune-response to SRBC in vitro, MD) a mixed lymphocyte reaction (MLR) and on the P-815 mastocytoma cell line for cytotoxicity.

For experiment [1], the system named is Spleen cells (proliferative response of lymphocytes to allogenic stimulation). Kind of experiment: Two-way MLR (Murine Mixed Lymphocyte Reaction). As to conditions: Table 5. The class given is cell-based, mouse (Balb/c, CBA). As to the method:
1. Proliferative Response Of Lymphocytes to Allogenic Stimulation
Two-way MLR (Murine Mixed Lymphocyte Reaction)
Spleen cells (0.5×106) from Balb/c mice (female, 8-10 weeks) are co-incubated for 5 .sctn.days with 0.5×10^6 spleen cells from CBA mice (female, 8-10 weeks). The allogenic cells induce a proliferative response in the responder spleen cell population which is measured by labelled precursor incorporation into the DNA. Test compounds are added at the start of incubation at varying concentrations and proliferative response compared with untreated controls.
as §1

The next experiment concerns Jurkat cells. The experiment can be described thus: Cytotoxic and cytostatic activity using transformed human T-cell line (Jurkat). As to conditions: Table 5. Format: cell-based. On the procedure:
2. Cytotoxic and cytostatic activity using a transformed human T-cell line (Jurkat)
5×10^4 Jurkat cells are grown in a final volume of 0.2 ml for 72 hours after which the cell numbers are enumerated by use of an enzymatic assay using p-nitrophenyl-N-acetyl-β-D-glucosamindle as substrate. Test compounds are added at varying concentration at the start of culture and cytotoxicity compared with untreated controls.

For experiment [2], the system named is systemic lupus erythematosus (disease onset). The experiment can be described thus: Systemic lupus erythematosus (SLE) in the mouse (NZB/NZW). The class given is in vivo, mouse (NZB/NZW F1). Conditions: po, read-out: TEST 10 (SLE) ED100. On the procedure:
10. Systemic lupus erythematosus (SLE) in the mouse (NZB/NZW)
Female New Zealand black/white (NZB/NZW) F1 mice spontaneously develop characteristics that resemble systemic lupus erythematosus. […] Treatment starts at 24 weeks of age when animals show proteinurea. Compounds are administered p.o. 3 times a week for a total of 12 weeks. Status is determined every second week and animals are sent for histological evaluation at termination of the experiment Ten mice are used per group.

For experiment [3], the system named is GvH reaction (popliteal lymph node weight). Kind of experiment: Localised Graft-versus-Host (GvH) Reaction in the rat. As to conditions: up to about 100× more active than corresponding 17β-epimers. The class given is in vivo. On the procedure: 4. Localised Graft-versus-Host (GvH) Reaction in the rat
Spleen cells (1×10^7) from 6 week old female Wistar/Furth (WE) rats are injected subcutaneously on day 0 into the left hind-paw of female (F344×WF)F1 rats weighing about 100 g. Animals are treated for 4 consecutive days and the popliteal lymph nodes are removed and weighed on day 7. The difference in weight between the two lymph nodes is taken as the parameter for evaluating the reaction. Test compounds are administered daily for 4 days at varying dosage p.o. and inhibition compared with untreated controls. Dammara compounds are active (inhibit GvH reaction) in this test model at doses of the order of from 10 μg to 10 mg/kg/day p.o..

The test system of experiment [4] is DTH reaction (footpad swelling). Kind of experiment: DTH (delayed-type hypersensitivity) induced by SRBC-TH cells. The class given is in vivo, mouse (C57 BL/6). As to conditions: Mus musculus, po, 24 h, read-out: TEST 9 (DTH) ED50. As to the method:
50 μl of the SRBC cell suspension (diluted 1:1 v/v with PBS) is injected s.c. into the left hind footpad (to measure non specific increase in footpad swelling due to the injection procedure). Right and left hind footpad thickness is measured 24 hours later.

Structures are written as SMILES. In brackets after ≈: the same amount, converted by molar mass. Read-outs that look alike come from different tables or passages of the source.

Consider `COc1cc([C@@H]2c3cc4c(cc3C[C@H]3COC(=O)[C@@H]32)OCO4)cc(OC)c1OC` [Silicicolin, reference compound], for which the “IC50 P-815” value in the experiment on P-815 mastocytoma cells was found to be 0.004 µg/mL (≈ 10 nM). Further, in experiment [1], the “IC50 MLR” value stood at 0.002 µg/mL (≈ 5.02 nM). In the experiment with Jurkat cells, the “IC50 Jurkat” value came out at 0.0025 µg/mL (≈ 6.27 nM).
For `C=C(C/C=C/C(C)(C)O)[C@@H]1CC[C@]2(C)[C@@H]1CC[C@@H]1[C@@]3(C)CC[C@H](O)C(C)(C)[C@@H]3CC[C@]12C` [compound of formula IC, (17α)-23-(E)-dammara-20,23-diene-3β,25-diol], the IC50 (in general, the point on the concentration scale where inhibition reaches its midpoint) in the experiment on P-815 mastocytoma cells (Mus musculus, P815) is > 5 µg/mL; in experiment [1] (Mus musculus, Lymphocyte) it was 0.0105 µg/mL; in the experiment on Jurkat cells (Homo sapiens, Jurkat), > 5 µg/mL. The ED100 in experiment [2] (one trial run) is 0.01 mg/kg. Also, the “IC50 MLR” value in experiment [1] came out at 0.011 µg/mL. For the same molecule, the “activity relative to corresponding 17β-epimers” value in experiment [3] is given as “up to 100 ×”. In experiment [4] (one trial run), the ED50 (commonly the midpoint of the dose-response relation) was found to be 0.004 mg/kg.
For the molecule `C=C(C/C=C/C(C)(C)O)[C@H]1CC[C@]2(C)[C@@H]1CC[C@@H]1[C@@]3(C)CC[C@H](O)C(C)(C)[C@@H]3CC[C@]12C` [β-EPIMER OF IC, (17β)-23-(E)-dammara-20,23-dien-3β,25-diol], in experiment [2], the ED100 amounted to 10 mg/kg. The ED50 in experiment [4] amounted to 10 mg/kg.
